In ChEMBL document CHEMBL1125648, “Quinazoline antifolates inhibiting thymidylate synthase: 4-thio-substituted analogues” (J Med Chem, 1991):

Tested on: L1210
Assay: Growth inhibition of L1210 cells in culture
Assay type: functional, cell-based
Conditions: Mus musculus

SMILES | IC50 [µM]
CCN(Cc1ccc2ncnc(S)c2c1)c1ccc(C(=O)NC(CCC(=O)O)C(=O)O)cc1 (stereo not given) | 31
C#CCN(Cc1ccc2nc(C)nc(S)c2c1)c1ccc(C(=O)NC(CCC(=O)O)C(=O)O)cc1 (stereo not given) | 8
C#CCN(Cc1ccc2nc(N)nc(S)c2c1)c1ccc(C(=O)NC(CCC(=O)O)C(=O)O)cc1 (stereo not given) | 18
CCN(Cc1ccc2ncnc(SC)c2c1)c1ccc(C(=O)NC(CCC(=O)O)C(=O)O)cc1 (stereo not given) | 15
C#CCN(Cc1ccc2ncnc(S)c2c1)c1ccc(C(=O)NC(CCC(=O)O)C(=O)O)cc1 (stereo not given) | 7.4
